The record followed here is patent publication US12324802B2, “Modulators of cystic fibrosis transmembrane conductance regulator” (Vertex Pharmaceuticals Incorporated, priority 2020, dated 2025).

In this test the target is T1, CFTR (F508del/MF-HBE cells) (Homo sapiens, UniProt P13569, DEL508-508).
T1 construct: human bronchial epithelial (HBE) cells derived from CF subjects heterozygous for F508del and a minimal function CFTR mutation; endogenous in cells; host or cells: primary human bronchial epithelial cells from CF subjects (F508del/MF genotype)
T1 sequence (P13569 with tags, fused parts or gaps DEL508-508): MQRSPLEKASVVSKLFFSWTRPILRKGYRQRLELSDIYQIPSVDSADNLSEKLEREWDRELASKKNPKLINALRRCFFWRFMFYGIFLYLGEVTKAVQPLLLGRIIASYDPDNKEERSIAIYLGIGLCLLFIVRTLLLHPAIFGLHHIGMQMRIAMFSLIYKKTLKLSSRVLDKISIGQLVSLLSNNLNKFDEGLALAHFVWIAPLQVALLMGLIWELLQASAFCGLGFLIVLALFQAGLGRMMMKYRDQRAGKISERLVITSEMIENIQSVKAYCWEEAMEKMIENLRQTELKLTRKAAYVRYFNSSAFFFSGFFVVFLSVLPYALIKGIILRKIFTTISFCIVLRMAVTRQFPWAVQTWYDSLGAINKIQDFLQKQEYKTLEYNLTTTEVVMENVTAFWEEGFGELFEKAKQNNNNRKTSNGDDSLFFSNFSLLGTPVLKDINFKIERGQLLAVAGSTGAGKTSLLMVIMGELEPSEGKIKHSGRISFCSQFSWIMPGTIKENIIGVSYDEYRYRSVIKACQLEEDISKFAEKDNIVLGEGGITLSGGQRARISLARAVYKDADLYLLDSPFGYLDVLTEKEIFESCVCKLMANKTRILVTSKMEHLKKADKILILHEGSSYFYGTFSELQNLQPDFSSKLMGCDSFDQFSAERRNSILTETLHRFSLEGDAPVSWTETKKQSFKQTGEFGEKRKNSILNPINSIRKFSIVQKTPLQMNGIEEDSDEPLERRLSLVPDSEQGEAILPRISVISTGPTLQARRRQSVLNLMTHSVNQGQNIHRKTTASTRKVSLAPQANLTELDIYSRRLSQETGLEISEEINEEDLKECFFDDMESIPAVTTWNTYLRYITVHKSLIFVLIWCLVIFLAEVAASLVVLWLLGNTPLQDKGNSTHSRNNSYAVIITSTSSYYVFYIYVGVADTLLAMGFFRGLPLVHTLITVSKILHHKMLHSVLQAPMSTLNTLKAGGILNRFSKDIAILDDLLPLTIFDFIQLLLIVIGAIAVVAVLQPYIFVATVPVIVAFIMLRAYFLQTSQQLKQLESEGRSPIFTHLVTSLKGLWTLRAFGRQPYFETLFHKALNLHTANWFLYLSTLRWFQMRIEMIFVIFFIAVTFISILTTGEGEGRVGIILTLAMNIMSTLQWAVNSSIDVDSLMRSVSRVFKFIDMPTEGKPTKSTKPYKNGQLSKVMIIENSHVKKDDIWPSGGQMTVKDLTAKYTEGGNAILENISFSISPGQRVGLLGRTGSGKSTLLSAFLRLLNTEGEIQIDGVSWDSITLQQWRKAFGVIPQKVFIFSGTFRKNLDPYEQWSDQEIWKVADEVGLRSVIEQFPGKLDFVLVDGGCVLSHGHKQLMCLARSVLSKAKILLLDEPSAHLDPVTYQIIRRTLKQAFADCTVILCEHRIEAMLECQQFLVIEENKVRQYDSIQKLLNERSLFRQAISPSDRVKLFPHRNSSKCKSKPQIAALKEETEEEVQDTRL
In words: Ussing chamber assay of CFTR-mediated short-circuit currents (identification of potentiator compounds). The settings on record: CFTR-mediated ISC in F508del/MF-HBE cells; incubated 18-24 hours at 37° C. with 10 μM (14S)-8-[3-(2-{dispiro[2.0.2.1]heptan-7-yl}ethoxy)-1H-pyrazol-1-yl]-...-2,2,4-trione, 20% human serum. The test is classed as cell-based. In a few lines: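 F508del/minimal-function HBE cultures grown at air-liquid interface were incubated for 18–24 h at 37 °C with potentiator plus 10 μM corrector, in 20% human serum, and compounds stayed present during recording. Transepithelial ISC was recorded at 0 mV and 37 °C with 30 μM apical amiloride. CFTR current was taken as the peak response to 20 μM forskolin minus the steady state after a 20 μM inhibitor cocktail.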

The term EC50 denotes the concentration that produces a half-maximal response.

For `Nc1cc(S(=O)(=O)c2ccc(OC(F)(F)F)cc2)c2nc1-c1nnc(o1)C(O)(C(F)(F)F)CCCCC[C@@H]1CCCN21` (single isomer, unassigned) [Compound 152], the concentration for a half-maximal effect (EC50) is under 500 nM.
For the compound `Nc1cc(S(=O)(=O)c2ccc(OC(F)(F)F)cc2)c2nc1-c1nnc(o1)C(O)(C(F)(F)F)CCCCC[C@@H]1CCCN21` (single isomer, unassigned) [Compound 153], the EC50 is over 1000 nM.
Consider `Nc1cc(C(F)(F)F)c2nc1-c1nnc(o1)[C@@](O)(C(F)(F)F)CCCCCC(C(=O)O)N2` (single isomer, unassigned) [Compound 155], for which the 50% effective concentration (EC50) was over 1000 nM.
For `Nc1cc(C(F)(F)F)c2nc1-c1nnc(o1)[C@@](O)(C(F)(F)F)CCCCCC(C(=O)O)N2` (single isomer, unassigned) [Compound 156], the EC50 is under 500 nM.
For the compound `Nc1cc(C(F)(F)F)c2nc1-c1nnc(o1)[C@@](O)(C(F)(F)F)CCCCCC(C(=O)N1CCCC1)N2` (single isomer, unassigned) [Compound 157], the concentration giving a half-maximal response (EC50) is under 500 nM.
As to `Nc1cc(C(F)(F)F)c2nc1-c1nnc(o1)[C@@](O)(C(F)(F)F)CCCCCC(C(=O)N1CCCC1)N2` (single isomer, unassigned) [Compound 158], the EC50 is over 1000 nM.
Take `COc1cc2nc(c1N)-c1nnc(o1)C(O)(C(F)(F)F)CCCCC[C@@H]1CCCN21` (single isomer, unassigned) [Compound 159]: the concentration giving a half-maximal response (EC50) is over 1000 nM.
For `COc1cc2nc(c1N)-c1nnc(o1)C(O)(C(F)(F)F)CCCCC[C@@H]1CCCN21` (single isomer, unassigned) [Compound 160], the EC50 was over 1000 nM.
The value for `CS(=O)(=O)c1cc(N)c2nc1N1CCC[C@H]1CCCCCC(O)(C(F)(F)F)C1=NN=C2O1` (single isomer, unassigned) [Compound 161] was under 500 nM; that for `Nc1cc(C(F)(F)F)c2nc1-c1nnc(o1)C(O)(C(F)(F)F)CCCOC[C@@H]1CCCN21` (single isomer, unassigned) [Compound 167] was under 500 nM; that for `COC(=O)c1cc(N)c2nc1N1CCC[C@H]1CCCCCC(O)(C(F)(F)F)C1=NN=C2O1` (single isomer, unassigned) [Compound 169] was over 1000 nM.
In the case of `COC(=O)c1cc(N)c2nc1N1CCC[C@H]1CCCCCC(O)(C(F)(F)F)C1=NN=C2O1` (single isomer, unassigned) [Compound 170], the EC50 was under 500 nM.
Consider `CC1(C)CCCCC(O)(C(F)(F)F)C2=NN=C(O2)c2nc(c(C(F)(F)F)cc2N)NC1` (single isomer, unassigned) [Compound 171, 17-amino-11,11-dimethyl-6,15-bis(trifluoromethyl)-19-oxa-3,4,13,18-tetrazatricyclo[12.3.1.12,5]nonadeca-1(18),2,4,14,16-pentaen-6-ol], for which the EC50 was under 500 nM.
Take `CC1(C)CCCCC(O)(C(F)(F)F)C2=NN=C(O2)c2nc(c(C(F)(F)F)cc2N)NC1` (single isomer, unassigned) [Compound 172, 17-amino-11,11-dimethyl-6,15-bis(trifluoromethyl)-19-oxa-3,4,13,18-tetrazatricyclo[12.3.1.12,5]nonadeca-1(18),2,4,14,16-pentaen-6-ol]: the EC50 is under 500 nM.
For the compound `CC1(CO)CCCCC[C@](O)(C(F)(F)F)C2=NN=C(O2)c2nc(c(C(F)(F)F)cc2N)N1` (single isomer, unassigned) [Compound 174], the concentration for a half-maximal effect (EC50) was under 500 nM.
The value for `CC1(CO)CCCCC[C@](O)(C(F)(F)F)C2=NN=C(O2)c2nc(c(C(F)(F)F)cc2N)N1` (single isomer, unassigned) [Compound 175] was under 500 nM; that for `CC(C)C1CCCCC[C@](O)(C(F)(F)F)C2=NN=C(O2)c2nc(c(C(F)(F)F)cc2N)N1` (single isomer, unassigned) [Compound 178] was under 500 nM; that for `CC(C)C1CCCCC[C@](O)(C(F)(F)F)C2=NN=C(O2)c2nc(c(C(F)(F)F)cc2N)N1` (single isomer, unassigned) [Compound 179] was under 500 nM.
For the compound `Nc1cc(C(F)(F)F)c2nc1-c1nnc(o1)[C@@](O)(C(F)(F)F)CCCCCC(Cc1ccccc1)N2` (single isomer, unassigned) [Compound 180], the EC50 is under 500 nM.
Take `Nc1cc(C(F)(F)F)c2nc1-c1nnc(o1)[C@@](O)(C(F)(F)F)CCCCCC(c1ccc(F)cc1)N2` (single isomer, unassigned) [Compound 182]: the concentration giving a half-maximal response (EC50) was under 500 nM.
In the case of `Nc1cc(C(F)(F)F)c2nc1-c1nnc(o1)[C@@](O)(C(F)(F)F)CCCCCC(c1ncco1)N2` (single isomer, unassigned) [Compound 184], the EC50 was under 500 nM.
Regarding `CC1(C)CCC(O)CC[C@](O)(C(F)(F)F)C2=NN=C(O2)c2nc(c(C(F)(F)F)cc2N)N1` (single isomer, unassigned) [Compound 189], the 50% effective concentration (EC50) is over 1000 nM.
Consider `CC1(C)CCC(O)CC[C@](O)(C(F)(F)F)C2=NN=C(O2)c2nc(c(C(F)(F)F)cc2N)N1` (single isomer, unassigned) [Compound 190], for which the EC50 is under 500 nM.
As to `Nc1cc(C(F)(F)F)c2nc1-c1nnc(o1)[C@@](O)(C(F)(F)F)CCCCCC(C1CC1)N2` (single isomer, unassigned) [Compound 191], the concentration giving a half-maximal response (EC50) was under 500 nM.
As for `Nc1cc(C(F)(F)F)c2nc1-c1nnc(o1)[C@@](O)(C(F)(F)F)CCCCCC(C1CC1)N2` (single isomer, unassigned) [Compound 192], the concentration for a half-maximal effect (EC50) was under 500 nM.
As to `CC1(C)CCCCC(O)C(O)(C(F)(F)F)C2=NN=C(O2)c2nc(c(C(F)(F)F)cc2N)N1` (single isomer, unassigned) [Compound 194, 17-amino-12,12-dimethyl-6,15-bis(trifluoromethyl)-19-oxa-3,4,13,18-tetrazatricyclo[12.3.1.12,5]nonadeca-1(18),2,4,14,16-pentaene-6,7-diol], the EC50 was under 500 nM.
With `CC1(C)CCCCC(O)C(O)(C(F)(F)F)C2=NN=C(O2)c2nc(c(C(F)(F)F)cc2N)N1` (single isomer, unassigned) [Compound 195, 17-amino-12,12-dimethyl-6,15-bis(trifluoromethyl)-19-oxa-3,4,13,18-tetrazatricyclo[12.3.1.12,5]nonadeca-1(18),2,4,14,16-pentaene-6,7-diol], the EC50 is over 1000 nM.
With `CC1(C)CCCOCC(O)(C(F)(F)F)C2=NN=C(O2)c2nc(c(C(F)(F)F)cc2N)N1` (single isomer, unassigned) [Compound 197, 17-amino-12,12-dimethyl-6,15-bis(trifluoromethyl)-8,19-dioxa-3,4,13,18-tetrazatricyclo[12.3.1.12,5]nonadeca-1(18),2,4,14,16-pentaen-6-ol] the figure was under 500 nM.
As for `CC1(C)COCCCC(O)(C(F)(F)F)C2=NN=C(O2)c2nc(c(C(F)(F)F)cc2N)N1` (single isomer, unassigned) [Compound 199, 17-amino-12,12-dimethyl-6,15-bis(trifluoromethyl)-10,19-dioxa-3,4,13,18-tetrazatricyclo[12.3.1.12,5]nonadeca-1(18),2,4,14,16-pentaen-6-ol], the EC50 is under 500 nM.
The value for `Nc1cc(C(F)(F)F)c2nc1-c1nnc(o1)[C@@](O)(C(F)(F)F)CCCCCC(c1ncccn1)N2` (single isomer, unassigned) [Compound 201] was under 500 nM; that for `CC1(C)Nc2nc(c(N)cc2C(F)(F)F)C2=NN=C(O2)[C@@](O)(C(F)(F)F)CCCCC1O` (single isomer, unassigned) [Compound 203] was under 500 nM.
In the case of `CC1(C)Nc2nc(c(N)cc2C(F)(F)F)C2=NN=C(O2)[C@@](O)(C(F)(F)F)CCCCC1O` (single isomer, unassigned) [Compound 204], the EC50 was under 500 nM.
With `Nc1cc(C(F)(F)F)c2nc1-c1nnc(o1)[C@@](O)(C(F)(F)F)CCCCCC1(CCOC1)N2` (single isomer, unassigned) [Compound 207], the EC50 is under 500 nM.
`Nc1cc(C(F)(F)F)c2nc1-c1nnc(o1)[C@@](O)(C(F)(F)F)CCCCCC1(CCOC1)N2` (single isomer, unassigned) [Compound 208]: the half-maximal effective concentration (EC50) is under 500 nM.
`Nc1cc(C(F)(F)F)c2nc1-c1nnc(o1)[C@@](O)(C(F)(F)F)CCCCC[C@@H]1CCCN21` [Compound 4, (6R,12R)-20-amino-6,18-bis(trifluoromethyl)-22-oxa-3,4,16,21-tetraazatetracyclo[15.3.1.12,5.012,16]docosa-1(21),2,4,17,19-pentaen-6-ol]: the EC50 is under 500 nM.
For `Nc1cc(C(F)(F)F)c2nc1-c1nnc(o1)[C@](O)(C(F)(F)F)CCCCC[C@@H]1CCCN21` [Compound 5, (6S,12R)-20-amino-6,18-bis(trifluoromethyl)-22-oxa-3,4,16,21-tetraazatetracyclo[15.3.1.12,5.012,16]docosa-1(21),2,4,17,19-pentaen-6-ol], the EC50 is over 1000 nM.
For `Nc1cc(C(F)(F)F)c2nc1-c1nnc(o1)C(O)(C(F)(F)F)CCCCC1CCN2C1` (centres unmarked) [Compound 8, 16-amino-10,18-bis(trifluoromethyl)-20-oxa-2,12,13,19-tetraazatetracyclo[13.3.1.12,5.111,14]henicosa-1(19),11,13,15,17-pentaen-10-ol], the half-maximal effective concentration (EC50) was under 500 nM.
With `Nc1cc(C(F)(F)F)c2nc1-c1nnc(o1)C(O)(C(F)(F)F)CCCCC1CCN2C1` (centres unmarked) [Compound 9, 16-amino-10,18-bis(trifluoromethyl)-20-oxa-2,12,13,19-tetraazatetracyclo[13.3.1.12,5.111,14]henicosa-1(19),11,13,15,17-pentaen-10-ol] the figure was under 500 nM.
